Reference: patent US10478437B2, “Combination therapy to enhance the anticancer efficacy of platinum drugs” (University of Pittsburgh-of the Commonwealth System of …, priority 2014, dated 2019)

Test system: cisplatin-resistant ovarian cancer cell line A2780cis
Experiment: Caspase-3/7 activity assay (apoptotic cell death), compound alone or with cisplatin
Assay type: cell-based, human
Conditions: for caspase-3/7 activity (Lum), compound with cisplatin / caspase-3/7 activity (Lum), compound alone: 20 h; for caspase-3/7 activity (Lum), compound alone: compound 20 μM; for activity in the screen (Caspase-3/7 activity and microscopic examination), active / inactive: alone or in the presence of cisplatin, in words
Protocol: Cell proliferation was determined using a CyQUANT Direct Cell Proliferation Assay kit (Invitrogen), the activity of caspase-3/7 was measured using a Caspase-Glo 3/7 Assay Systems (Promega, Madison, Wis.), and the MTS calorimetric survival assay was performed using the CellTiter 96 AQueous One Solution Cell Proliferation Assay kit (Promega, Madison, Wis.), according to the manufacturer's instructions. The survival fractions were calculated after setting untreated control cells at 100%. The data were plotted and curve fitted using GraphPad Prism software. To quantify the number of cells with active caspase-3, cells were fixed with 4% paraformaldehyde (Electron microscopy sciences, Hatfield, Pa.), stained with Alexa Fluor-488 conjugated antibody against cleaved caspase-3 (Asp175) (Cell Signaling Technology, Danvers, Mass.) followed by flow cytometry. An FITC Annexin V Apoptosis Detection Kit (BD PharMingen, San Diego, Calif.) was used to quantify apoptotic cells, according to the manufacturer's instructions.
A Caspase-3/7 assay was performed to evaluate the activity of the 36 compounds of FIG. 1 in vitro in the cisplatin-resistant ovarian cancer cell line, A2780cis, alone or in the presence of cisplatin. A microscopic examination of apoptotic morphologic changes was also carried out right before the measurement of Caspase-3/7 activity, in order to confirm that the data on the activation of the Caspase-3/7 following treatment is consistent with morphological change and reflects cell death.

[1] = Table 1, compound 20 μM with 20 μM cisplatin
[2] = Table 1, mean ± S.D. of triplicates
[3] = Table 3, compound 20 μM with 20 μM of cisplatin

| Structure (SMILES) | caspase-3/7 activity (Lum), compound with cisplatin [1] | caspase-3/7 activity (Lum), compound alone [2] | activity in the screen (Caspase-3/7 activity and microscopic examination), active / inactive | caspase-3/7 activity (Lum), compound with cisplatin [3] | caspase-3/7 activity (Lum), compound alone (Table 3) |
| --- | --- | --- | --- | --- | --- |
| Cc1ccc(-c2csc3[nH]c(=S)n(-c4ccccc4)c(=O)c23)o1 [Compound 1-1] | 28 ± 1 Lum | 12 ± 1 Lum | inactive |  |  |
| CC1CCc2c(sc3[nH]c(=S)n(Cc4ccccc4)c(=O)c23)C1 (stereo not shown) [Compound 1-2] | 25 ± 3 Lum | 12 ± 1 Lum | inactive |  |  |
| C=CCn1c(=S)[nH]c2scc(-c3ccc(C)c(C)c3)c2c1=O [Compound 1-3] | 28 ± 2 Lum | 12 ± 1 Lum | inactive |  |  |
| CN(C)CCn1c(=S)[nH]c2ccc(Cl)cc2c1=O [Compound 1-5] | 32 ± 1 Lum | 13 ± 1 Lum |  |  |  |
| Cc1cccc2c(=O)n(CCN(C)C)c(=S)[nH]c12 [Compound 1-7] | 20 ± 3 Lum | 12 ± 2 Lum |  |  |  |
| O=C(CCn1c(=S)[nH]c2ccccc2c1=O)N1CCOCC1 [Compound 1-9] | 23 ± 1 Lum | 13 ± 1 Lum |  |  |  |
| Cc1[nH]c(=S)[nH]c(=O)c1CCC(=O)N1CCOCC1 [Compound 1-10] | 21 ± 2 Lum | 14 ± 1 Lum |  |  |  |
| Cc1[nH]c(=S)[nH]c(=O)c1CCC(=O)NCCc1c[nH]c2ccccc12 [Compound 1-11] | 18 ± 2 Lum | 12 ± 1 Lum |  |  |  |
| CC1CCN(CCCn2c(=S)[nH]c3ccccc3c2=O)CC1 [Compound 1-12] | 23 ± 3 Lum | 10 ± 1 Lum |  |  |  |
| O=C(CCn1c(=S)[nH]c2ccccc2c1=O)NCC1(c2ccccc2)CCCC1 [Compound 1-13] | 35 ± 3 Lum | 14 ± 1 Lum |  |  |  |
| O=C(CCCCCn1c(=S)[nH]c2ccccc2c1=O)NCc1ccc2c(c1)OCO2 [Compound 1-14] | 22 ± 2 Lum | 11 ± 1 Lum |  |  |  |
| C=CCn1c(=S)[nH]c2scc(-c3ccc(Oc4ccccc4)cc3)c2c1=O [Compound 1-15] | 28 ± 3 Lum | 12 ± 2 Lum | inactive |  |  |
| COCCCn1c(=S)[nH]c2cc(C(=O)Nc3ccc(F)c(F)c3)ccc2c1=O [Compound 1-16] | 18 ± 3 Lum | 10 ± 1 Lum |  |  |  |
| O=C(CCn1c(=O)[nH]c2ccccc2c1=O)NCCCOc1ccc(F)cc1 [Compound 1-18] | 19 ± 3 Lum | 12 ± 1 Lum |  |  |  |
| COc1ccccc1Cn1c(=S)[nH]c2ccccc2c1=O [Compound 1-20] | 39 ± 3 Lum | 13 ± 1 Lum |  |  |  |
| C=CCn1c(=S)[nH]c2cc(C(=O)Nc3cc(OC)c(OC)c(OC)c3)ccc2c1=O [Compound 1-22] | 25 ± 2 Lum | 16 ± 1 Lum |  |  |  |
| CN(Cc1ccc(Cl)c(Cl)c1)C(=O)CCn1c(=O)[nH]c(=O)c2ccccc21 [Compound 1-23] | 27 ± 1 Lum | 15 ± 1 Lum |  |  |  |
| CC(C)CC(NC(=O)Cn1c(=O)[nH]c(=O)c2ccccc21)c1ccccc1 (stereo not shown) [Compound 1-25] | 33 ± 2 Lum | 15 ± 1 Lum |  |  |  |
| N#Cc1c(-c2ccc(Br)cc2)[nH]c(=S)[nH]c1=O [Compound 1-26] | 26 ± 1 Lum | 14 ± 3 Lum |  |  |  |
| CC(C)(C)C1CCc2c(sc3[nH]c(=S)n(Cc4ccccc4)c(=O)c23)C1 (stereo not shown) [Compound 1-27] | 40 ± 5 Lum | 23 ± 2 Lum | inactive |  |  |
| Nn1c(=S)[nH]c2ccccc2c1=O [Compound 1-28] | 22 ± 2 Lum | 15 ± 1 Lum |  |  |  |
| CC(=O)Nn1c(=S)[nH]c2ccccc2c1=O [Compound 1-29] | 23 ± 1 Lum | 15 ± 2 Lum |  |  |  |
| CCN(CC)CCn1c(=O)[nH]c2ccccc2c1=O [Compound 1-31] | 26 ± 4 Lum | 12 ± 1 Lum |  |  |  |
| O=c1[nH]c2ccccc2c(=O)n1CCCN1CCOCC1 [Compound 1-32] | 20 ± 1 Lum | 13 ± 1 Lum |  |  |  |

| Structure (SMILES) | caspase-3/7 activity (Lum), compound with cisplatin [1] | caspase-3/7 activity (Lum), compound alone [2] | activity in the screen (Caspase-3/7 activity and microscopic examination), active / inactive | caspase-3/7 activity (Lum), compound with cisplatin [3] | caspase-3/7 activity (Lum), compound alone (Table 3) |
| --- | --- | --- | --- | --- | --- |
| O=c1[nH]c2ccccc2c(=O)n1CCc1ccccc1 [Compound 1-33] | 16 ± 1 Lum | 10 ± 1 Lum |  |  |  |
| CCOC(=O)c1ccccc1NC(=O)c1c(O)[nH]c(=S)[nH]c1=O [Compound 1-34] | 22 ± 3 Lum | 12 ± 1 Lum |  |  |  |
| O=C(Nc1ccccc1)c1c(O)[nH]c(=S)[nH]c1=O [Compound 1-35] | 5 ± 1 Lum | 2 ± 1 Lum |  |  |  |
| CCCCn1c(=S)[nH]c2cc(C(=O)OC)ccc2c1=O [Compound 1-36] | 47 ± 3 Lum | 16 ± 2 Lum |  |  |  |
| Cc1cccnc1NC(=S)NC(=O)c1cccs1 [Compound 2-2] |  |  |  | 25 ± 1 Lum | 9 ± 1 Lum |
| O=C(NC(=S)Nc1ccccc1N1CCOCC1)c1ccco1 [Compound 2-3] |  |  |  | 20 ± 1 Lum | 8 ± 1 Lum |
| O=C(NC(=S)Nc1ccccc1N1CCCC1)c1cccs1 [Compound 2-4] |  |  |  | 18 ± 1 Lum | 8 ± 1 Lum |
| COc1ccc(C=C2C(=O)NC(=S)NC2=O)c(OC)c1 [Compound 2-6] |  |  |  | 22 ± 1 Lum | 7 ± 1 Lum |
| O=C(NC(=S)Nc1ccccc1)c1ccc(Br)o1 [Compound 2-8] |  |  |  | 20 ± 2 Lum | 7 ± 2 Lum |
| O=C(NC(=S)NCC1CCCO1)c1ccccc1 (stereo not shown) [Compound 2-9] |  |  |  | 20 ± 2 Lum | 8 ± 1 Lum |
| Cc1c(NC(=S)NC(=O)C(C)(C)C)c(=O)n(-c2ccccc2)n1C [Compound 2-10] |  |  |  | 20 ± 2 Lum | 7 ± 2 Lum |
| CC(C)C(=O)NC(=S)Nc1ccc(F)c(Cl)c1 [Compound 2-11] |  |  |  | 17 ± 2 Lum | 9 ± 1 Lum |
| O=C(CNC(=S)NC(=O)c1ccco1)c1ccccc1 [Compound 2-12] |  |  |  | 18 ± 1 Lum | 7 ± 1 Lum |
| O=C(NC(=S)NC1CCS(=O)(=O)C1)c1ccc(F)cc1 (stereo not shown) [Compound 2-13] |  |  |  | 20 ± 3 Lum | 8 ± 1 Lum |
| O=C(NC(=S)NC1CCS(=O)(=O)C1)c1ccccc1 (stereo not shown) [Compound 2-14] |  |  |  | 21 ± 2 Lum | 8 ± 1 Lum |
| COCCCNC(=S)NC(=O)c1ccc(F)cc1 [Compound 2-15] |  |  |  | 18 ± 3 Lum | 8 ± 1 Lum |
| O=C(NC(=S)Nc1ccc(F)c(Cl)c1)C1CCCCC1 [Compound 2-16] |  |  |  | 17 ± 1 Lum | 8 ± 1 Lum |
| O=C(NC(=S)NCCN1CCOCC1)c1ccc(F)cc1 [Compound 2-17] |  |  |  | 18 ± 1 Lum | 7 ± 2 Lum |
| O=C(NC(=S)NCCN1CCOCC1)c1ccc(Cl)cc1 [Compound 2-18] |  |  |  | 17 ± 1 Lum | 9 ± 1 Lum |
| CC(C)(C)C(=O)NC(=S)Nc1sc2c(c1C(N)=O)CCCC2 [Compound 2-20] |  |  |  | 15 ± 2 Lum | 8 ± 1 Lum |
| O=C(NC(=S)Nc1ccccc1F)c1ccco1 [Compound 2-21] |  |  |  | 25 ± 1 Lum | 8 ± 1 Lum |
| O=C(CNC(=S)NC(=O)c1ccc(F)cc1)c1ccccc1 [Compound 2-22] |  |  |  | 26 ± 2 Lum | 9 ± 1 Lum |
| Cc1ccc(NC(=S)NC(=O)c2ccc(F)cc2)nc1 [Compound 2-23] |  |  | inactive | 22 ± 2 Lum | 7 ± 0 Lum |
| Cc1ccc(C(=O)NC(=S)Nc2ccc(C)cn2)cc1 [Compound 2-24] |  |  | inactive | 19 ± 5 Lum | 7 ± 1 Lum |
